# Source: patent publication US12209091B2, “Isoindolinone derivatives as selective allosteric inhibitors of Egfr mutant cancers” (Hoffmann-La Roche Inc., priority 2018, dated 2025)
# Target: T1, Phospho EGFR TMLR (H1975 cells) (Homo sapiens, UniProt P00533, L858R/T790M)
# T1 construct: H1975 cell line (CRL-5908; Lot BA70803) was obtained from American Type Culture Collection; host or cells: H1975
# Experiment: HTRF Phospho EGFR TMLR assay (cellular), H1975
# Format: cell-based
# Conditions: H1975 cell line, 16 hours compound incubation, Phospho-EGFR HTRF readout
# Method: HTRF Phospho EGFR TMLR Assay (Cellular)
# H1975 cell line (CRL-5908; Lot BA70803) was obtained from American Type Culture Collection (Manassas, VA, USA). Cells were maintained at 37° C., 5% CO2 in complete Media RPMI 1640 without phenol red containing 0.3 mg/ml glutamine, 100 IU/ml penicillin, and […] streptomycin (Gibco, 15140-122) supplemented with 10% fetal bovine serum (FBS, Gibco, 10091-148). Compounds were diluted into starving medium RPMI 1640 Media (Gibco, 11835-030) without phenol red containing 0.3 mg/ml glutamine, 100 IU/ml penicillin, and […] streptomycin (Gibco).
# Cells were cultured for 24 h in a 384-well plate (Greiner Bio-One, Nr. 784-080; 5000 cells/well) using 8 μl of complete medium/well. Then 4 μl/well of the 3× compound solution, containing a factor 3 dilution series of the compound or DMSO in starving medium, were added to the cells (final DMSO 0.33%). After 16 hours at 37° C., 5% CO2, 95% rel. humidity cells were lysed by adding to the compound mix 4 μl/well of the supplemented lysis buffer (Cis-bio, Phospho-EGFR HTRF kit, 64EG1PEH), followed by incubation for 30 min at room temperature with shaking (400 rpm). Then 4 μl of a mixture of anti-Phospho-EGFR Cryptate and of anti-Phospho-EGFR-d2 antibody solutions prepared in the detection buffer was added. The plates were then incubated for 4 h at room temperature before reading the fluorescence emission at 620 and 665 nm using an Envision reader (Perkin Elmer).
# T1 sequence (P00533 25-1210 T790M/L858R): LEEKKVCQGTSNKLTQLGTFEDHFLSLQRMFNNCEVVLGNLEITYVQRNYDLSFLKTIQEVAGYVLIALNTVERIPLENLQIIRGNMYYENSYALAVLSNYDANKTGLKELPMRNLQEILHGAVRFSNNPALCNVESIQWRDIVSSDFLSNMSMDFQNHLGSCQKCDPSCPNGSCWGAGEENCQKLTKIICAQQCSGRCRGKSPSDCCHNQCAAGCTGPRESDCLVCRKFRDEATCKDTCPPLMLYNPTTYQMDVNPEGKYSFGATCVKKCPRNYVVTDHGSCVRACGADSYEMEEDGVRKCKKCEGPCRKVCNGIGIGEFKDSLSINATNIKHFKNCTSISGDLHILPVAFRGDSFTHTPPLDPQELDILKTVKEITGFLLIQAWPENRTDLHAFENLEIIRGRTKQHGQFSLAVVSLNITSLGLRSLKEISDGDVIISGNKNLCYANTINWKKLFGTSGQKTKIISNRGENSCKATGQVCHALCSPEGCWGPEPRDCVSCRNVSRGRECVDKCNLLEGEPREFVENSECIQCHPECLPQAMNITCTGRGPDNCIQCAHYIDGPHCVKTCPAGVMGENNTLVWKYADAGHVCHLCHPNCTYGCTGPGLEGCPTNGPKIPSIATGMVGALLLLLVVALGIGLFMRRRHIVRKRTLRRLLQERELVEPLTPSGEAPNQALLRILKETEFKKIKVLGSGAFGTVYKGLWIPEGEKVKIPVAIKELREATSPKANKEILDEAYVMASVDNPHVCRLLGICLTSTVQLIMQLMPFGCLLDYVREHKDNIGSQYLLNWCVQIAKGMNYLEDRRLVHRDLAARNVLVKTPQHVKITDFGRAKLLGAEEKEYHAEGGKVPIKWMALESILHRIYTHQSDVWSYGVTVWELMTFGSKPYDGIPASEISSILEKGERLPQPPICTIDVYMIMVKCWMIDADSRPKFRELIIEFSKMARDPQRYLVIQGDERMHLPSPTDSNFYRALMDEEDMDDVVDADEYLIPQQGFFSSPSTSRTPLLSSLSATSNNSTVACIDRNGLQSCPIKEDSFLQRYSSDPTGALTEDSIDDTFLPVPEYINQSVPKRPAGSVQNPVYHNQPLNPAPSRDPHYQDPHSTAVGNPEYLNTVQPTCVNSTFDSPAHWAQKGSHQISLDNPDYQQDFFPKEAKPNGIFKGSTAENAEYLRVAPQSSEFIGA
row,IC50 [nM],Compound
1,3,"CN1CCN(Cc2ccc(C#Cc3cc(F)c4c(c3)C(=O)N(C(C(=O)Nc3nccs3)c3ncn5c3CCC5)C4)cc2)CC1 (racemic) [Example 1, (2RS)-2-(6,7-Dihydro-5H-pyrrolo[1,2-c]imidazol-1-yl)-2-[4-fluoro-6-[2-[4-[(4-methylpiperazin-1-yl)methyl]phenyl]ethynyl]-1-oxo-isoindolin-2-yl]-N-thiazol-2-yl-acetamide]"
2,1,"O=C(Nc1nccs1)C(c1ncn2c1CCC2)N1Cc2c(F)cc(C#Cc3ccc(CN4CCC(O)CC4)cc3)cc2C1=O (racemic) [Example 2, (2RS)-2-(6,7-Dihydro-5H-pyrrolo[1,2-c]imidazol-1-yl)-2-[4-fluoro-6-[2-[4-[(4-hydroxy-1-piperidyl)methyl]phenyl]ethynyl]-1-oxo-isoindolin-2-yl]-N-thiazol-2-yl-acetamide]"
3,2,"O=C(Nc1nccs1)C(c1ncn2c1CCC2)N1Cc2c(F)cc(-c3ccc(N4CCNCC4)cc3)cc2C1=O (racemic) [Example 3, (2RS)-2-(6,7-Dihydro-5H-pyrrolo[1,2-c]imidazol-1-yl)-2-[4-fluoro-1-oxo-6-(4-piperazin-1-ylphenyl)isoindolin-2-yl]-N-thiazol-2-yl-acetamide]"
4,4,"CCN1CCN(c2ccc(-c3cc(F)c4c(c3)C(=O)N(C(C(=O)Nc3nccs3)c3ncn5c3CCC5)C4)cn2)CC1 (racemic) [Example 4, (2RS)-2-(6,7-Dihydro-5H-pyrrolo[1,2-c]imidazol-1-yl)-2-[6-[6-(4-ethylpiperazin-1-yl)-3-pyridyl]-4-fluoro-1-oxo-isoindolin-2-yl]-N-thiazol-2-yl-acetamide]"
5,3,"CCN1CCN(c2ccc(-c3cc(F)c4c(c3)C(=O)N(C(C(=O)Nc3nccs3)c3ncn5c3CCC5)C4)cc2)CC1 (racemic) [Example 5, (2RS)-2-(6,7-Dihydro-5H-pyrrolo[1,2-c]imidazol-1-yl)-2-[6-[4-(4-ethylpiperazin-1-yl)phenyl]-4-fluoro-1-oxo-isoindolin-2-yl]-N-thiazol-2-yl-acetamide]"
6,4,"CCN1CCN(c2ccc(-c3cc(Cl)c4c(c3)C(=O)N(C(C(=O)Nc3nccs3)c3ncn5c3CCC5)C4)cc2)CC1 (racemic) [Example 6, (2RS)-2-[4-Chloro-6-[4-(4-ethylpiperazin-1-yl)phenyl]-1-oxo-isoindolin-2-yl]-2-(6,7-dihydro-5H-pyrrolo[1,2-c]imidazol-1-yl)-N-thiazol-2-yl-acetamide]"
7,1,"O=C(Nc1nccs1)C(c1ncn2c1CCC2)N1Cc2c(F)cc(-c3ccc(N4CCC(O)CC4)cc3)cc2C1=O (racemic) [Example 7, (2RS)-2-(6,7-Dihydro-5H-pyrrolo[1,2-c]imidazol-1-yl)-2-[4-fluoro-6-[4-(4-hydroxy-1-piperidyl)phenyl]-1-oxo-isoindolin-2-yl]-N-thiazol-2-yl-acetamide]"
8,2,"O=C(Nc1nccs1)C(c1ncn2c1CCC2)N1Cc2c(Cl)cc(-c3ccc(N4CCC(O)CC4)nc3)cc2C1=O (racemic) [Example 8, (2RS)-2-[4-Chloro-6-[6-(4-hydroxy-1-piperidyl)-3-pyridyl]-1-oxo-isoindolin-2-yl]-2-(6,7-dihydro-5H-pyrrolo[1,2-c]imidazol-1-yl)-N-thiazol-2-yl-acetamide]"
9,4,"O=C(Nc1nccs1)C(c1ncn2c1CCC2)N1Cc2c(Cl)cc(C#Cc3ccc(CN4CCC(O)CC4)cc3)cc2C1=O (racemic) [Example 9, (2RS)-2-[4-Chloro-6-[2-[4-[(4-hydroxy-1-piperidyl)methyl]phenyl]ethynyl]-1-oxo-isoindolin-2-yl]-2-(6,7-dihydro-5H-pyrrolo[1,2-c]imidazol-1-yl)-N-thiazol-2-yl-acetamide]"
10,8,"O=C(Nc1nccs1)C(c1ccn2c1CCC2)N1Cc2c(F)cc(C#Cc3ccc(CN4CCC(O)CC4)cc3)cc2C1=O (racemic) [Example 10, (2RS)-2-(6,7-Dihydro-5H-pyrrolizin-1-yl)-2-[4-fluoro-6-[2-[4-[(4-hydroxy-1-piperidyl)methyl]phenyl]ethynyl]-1-oxo-isoindolin-2-yl]-N-thiazol-2-yl-acetamide]"
11,2,"O=C(Nc1nccs1)C(c1ncn2c1CCC2)N1Cc2c(Cl)cc(-c3ccc(N4CCC(O)CC4)cc3)cc2C1=O (racemic) [Example 11, (2RS)-2-[4-Chloro-6-[4-(4-hydroxy-1-piperidyl)phenyl]-1-oxo-isoindolin-2-yl]-2-(6,7-dihydro-5H-pyrrolo[1,2-c]imidazol-1-yl)-N-thiazol-2-yl-acetamide]"
12,2,"O=C(Nc1nccs1)C(c1ncn2c1CCC2)N1Cc2c(F)cc(C#Cc3ccc(CO)cc3)cc2C1=O (racemic) [Example 12, (2RS)-2-(6,7-Dihydro-5H-pyrrolo[1,2-c]imidazol-1-yl)-2-[4-fluoro-6-[2-[4-(hydroxymethyl)phenyl]ethynyl]-1-oxo-isoindolin-2-yl]-N-thiazol-2-yl-acetamide]"
13,3,"O=C(Nc1nccs1)C(c1ncn2c1CCC2)N1Cc2c(F)cc(C#Cc3ccc(CN4CCC(O)CC4)cc3)c(Cl)c2C1=O (racemic) [Example 13, (2RS)-2-[7-chloro-4-fluoro-6-[2-[4-[(4-hydroxy-1-piperidyl)methyl]phenyl]ethynyl]-1-oxo-isoindolin-2-yl]-2-(6,7-dihydro-5H-pyrrolo[1,2-c]imidazol-1-yl)-N-thiazol-2-yl-acetamide]"
14,4,"O=C(Nc1nccs1)C(c1ncn2c1CCC2)N1Cc2c(F)cc(C#Cc3ccc(CN4CCCCC4)cc3)cc2C1=O (racemic) [Example 14, (2RS)-2-(6,7-Dihydro-5H-pyrrolo[1,2-c]imidazol-1-yl)-2-[4-fluoro-1-oxo-6-[2-[4-(1-piperidylmethyl)phenyl]ethynyl]isoindolin-2-yl]-N-thiazol-2-yl-acetamide]"
